Results on six compounds are retold here after PMC7895558, “Antiprotozoal Compounds from Urolepis hecatantha (Asteraceae)” (Evidence-based Complementary and Alternative Medicine : eCAM, 2021).

In series [1] the test system is Leishmania infantum promastigotes. As to the kind of experiment: anti-Leishmania activity (promastigotes, resazurin). The series is classed as cell-based. Conditions: 48 h, read-out: IC50 on L. infantum promastigotes. Here is the method:
(§1) For the anti-Trypanosoma and anti-Leishmania activity assays, we followed the methods described by Aguilera et al., 2019 [15].
Leishmania infantum (MHOM/BR/2002/LPC-RPV) was obtained from Fiocruz (Collection of Oswaldo Cruz Foundation, Rio de Janeiro, Brazil). Promastigotes were cultured as described with some modifications at 28°C in an axenic medium (BHI-Tryptose supplemented with: FBS 10%, hemine 2 × 10^−5 mg/mL, glucose 3.0 × 10^−4 g/mL, streptomycin 2.0 × 10^−4 g/mL, ampicillin 1.3 × 10^−4 g/mL) as a low-cost alternative for Leishmania spp. culture. Assays were performed in 96-well plastic plates using 2 × 10^6 promastigotes per well. Compounds were dissolved in DMSO. Different serial dilutions (25–0.05 µM) of the compounds with a final volume up to 200 µL were added. After 48 h at 28°C, 20 µL of a 2 mM resazurin solution was added, and the oxidation-reduction was quantified at 570 and 600 nm. The resazurin solution was prepared at 2.5 mM in phosphate-buffered solution (PBS), pH 7.4, and filtered through 0.22 µm before use. Resazurin sodium salt was obtained from Sigma-Aldrich (St. Louis, MO, USA) and stored at 4°C protected from light. Glucantime was used as a positive control. The efficacy of each compound was estimated by calculating the IC50 values using OriginLab 8.5® sigmoidal regression. Each antiproliferative experiment was done in duplicate, and each concentration was tested in triplicate.

The subject of series [2] is Trypanosoma cruzi epimastigotes (Tulahuen 2 strain). The series is described as follows: in vitro anti-Trypanosoma cruzi activity (epimastigote growth, absorbance 600 nm). The series is classed as cell-based. Conditions: for IC50: Trypanosoma cruzi, TULAHUEN, 120 h, read-out: IC50 on T. cruzi epimastigotes. The method, then: as §1
For the in vitro anti-Trypanosoma cruzi activity, epimastigotes of the Tulahuen 2 strain (genotype TcVI) grown in an axenic medium (BHI-Tryptose) were used. Cells from a 5–7-day-old culture were inoculated in a fresh culture medium to give an initial concentration of 10^6 cells/mL. The absorbance at 600 nm of the cells in culture was measured every day. On day five, the medium was inoculated with different doses of the compounds (25–0.05 µM) from a stock solution in dimethylsulfoxide (DMSO) (DMSO concentration in the culture medium never exceeded 0.4%). Control parasites were cultivated in medium with 0.4% DMSO v/v. Benznidazole was used as a positive control. At five days, the absorbance of the culture was measured and compared to the control and the IC50 values were calculated for each compound using OriginLab 8.5® sigmoidal regression. Each experiment was done in duplicate, and each concentration was tested in triplicate.

The nature of another series: cytotoxicity assay (MTT). In kind it is cell-based. Conditions: mouse. Here is the method: The cytotoxicity of the dewaxed dichloromethane extract of U. hecatantha and the isolated compounds was evaluated according to the method described by Aguilera et al., 2019 [15]. The J774.1 murine macrophages (ATCC, USA) were grown in a DMEM culture medium containing 4 mM L-glutamine and supplemented with 10% FCS. Cells were seeded in a 96-well plate (5.00 × 10^4 cells in 200 µL culture medium) and incubated at 37°C in a 5% CO2 atmosphere for 48 h, to allow cell adhesion before drug testing. Afterwards, cells were exposed for 48 h to the compounds (25–400 µM) or the vehicle for control (medium with 0.4% DMSO v/v), and additional control (cells in medium) were used in each test. Cell viability was then assessed by measuring the mitochondria-dependent reduction of MTT [3-(4,5-dimethylthiazol-2-yl)-2,5-diphenyltetrazolium bromide] to formazan. For this purpose, MTT in sterile PBS (containing 0.2% glucose), pH 7.4, was added to the macrophages to achieve a final concentration of 0.1 mg/mL, and the cells were incubated at 37°C for 3 h. After removing the medium, formazan crystals were dissolved in 180 µL of DMSO and 20 µL of MTT buffer (0.1 M glycine, 0.1 M NaCl, 0.5 mM EDTA, pH 10.5), and the absorbance at 560 nm was measured. The CC50 was defined as the drug concentration at which 50% of the cells were viable, relative to the control (no drug added), and was determined using OriginLab 8.5® sigmoidal regression (% of viable cells compared to the logarithm of the compound concentration). Tests were performed in triplicate.

Series [3] has as its system Trypanosoma brucei rhodesiense trypomastigotes. Conditions: cited from earlier work.
Series [4] relates to L6-cell line from rat-skeletal myoblasts. On the set-up: method as in PMID 29244495. Conditions: read-out: CC50 on L6 cells; cited from earlier work.
The mark [5] stands for this setting: Leishmania infantum, promastigotes.

Several values for one entry are separate records, joined by “and”; a condition that tells them apart may be missing. Equal values may be shown once. Read-outs that look alike come from different tables or passages of the source.

With Glucantime [reference compound], in series [1] (promastigotes), the half-maximal inhibitory concentration (IC50) came to 26 ± 9 µM.
For `O=C(Cn1ccnc1[N+](=O)[O-])NCc1ccccc1` [benznidazole, reference compound], the IC50 in series [2] (epimastigotes, 5 days) was 7 ± 2 µM.
On to `C=C1C(=O)O[C@@H]2/C=C(\C)[C@@H](O)C/C=C(\C)C[C@@H](OC(=O)/C(=C/CO)COC(C)=O)[C@@H]12` [compound 3, santhemoidin C], for which the IC50 was 19 µM and 8 µg/mL in series [1] (setting [5]); 18 µM and 7.6 µg/mL in series [2] (epimastigotes, 5 days). The same compound gave a CC50 at 48 h in the series “cytotoxicity assay (MTT)” (J774.1 murine macrophages) of more than 15 µM.
In the case of `C=C1C(=O)O[C@@H]2/C=C(/C)[C@@H](OC(C)=O)C/C=C(\C)C[C@@H](OC(=O)/C(=C/CO)CO)[C@@H]12` [compound 4, eucannabinolide], the half-maximal inhibitory concentration (IC50) in series [1] (setting [5]) is more than 25 µM; in series [2] (epimastigotes, 5 days), 10 µM and 4.2 µg/mL; in series [3] (loaded onto polylactic acid nanoparticles, target not restated in the sentence, read-out: free drug equivalent IC50), 3.32 µM; in series [3] (read-out: IC50 against Trypanosoma brucei rhodesiense trypomastigotes), 1.1 ± 0.1 µM. For the same compound, the “selectivity index (SI) on T. cruzi” value in series [2] (macrophage CC50 versus T. cruzi epimastigote IC50) came out at 1.5. The CC50 in “cytotoxicity assay (MTT)” (murine macrophages, 48 h) was 15 µM; in series [4], 7.8 ± 0.8 µM.
Regarding `C=C(C)c1cc2cc(C(C)=O)c(O)cc2o1` [compound 1, euparin], the IC50 in series [1] (Leishmania infantum) is 18 µM and 3.9 µg/mL; in series [2], more than 25 µM. In the series “cytotoxicity assay (MTT)” (murine macrophages), this compound yielded a CC50 at 48 h of more than 25 µM.
For the compound `COc1cc(-c2oc3cc(O)c(OC)c(O)c3c(=O)c2OC)ccc1O` [compound 2, jaceidin], the IC50 in series [1] (setting [5]) is more than 25 µM; in series [2] (epimastigotes, 5 days) it was more than 25 µM. The compound further yielded a CC50 at 48 h in the series “cytotoxicity assay (MTT)” (J774.1 murine macrophages) of more than 25 µM.

As a reminder, the IC50 is the midpoint of a concentration-inhibition curve. As usually defined, the CC50 is the concentration giving 50% cytotoxicity.
